Data taken from patent US3941882A, “Rodenticidal imidazo-pyridines” (priority 1974, dated 1976).
“Also recorded” adds a separate entry of the source.

Key:
[1] = tested on: rat population (Rattus norwegius); assay: Field trial against a rat population; type: in vivo; conditions: 100 ppm in feed
Method: A field trial was conducted to evaluate the efficacy of 1-methoxy-5,6-dichloro-2-heptafluoro-n-propyl-1H-imidazo(4,5-b)-pyridine. The trial was conducted in an area of waste ground covered by grass and brush and recently cut off, by construction activity, from a nearby abandoned stockyard. The trial area indicated the presence of a rat population; this was confirmed by supplying to the area a conventional pelleted hog feed. It was consumed steadily at the rate of 8 lbs./day, corresponding to a population of about 145 rats consuming an average of 25 g. of feed/day. After the conventional feed had been supplied for three weeks, the trial period began. The rat species was believed to be Rattus norwegius, and this was later confirmed upon recovery of the dead animals.
During the trial period, the conventional feed was replaced by an adequate supply of a modified feed, which was identical to the conventional feed except that it contained 100 ppm (0.01 percent) of 1-methoxy-5,6-dichloro-2-heptafluoro-n-propyl-1H-imidazo(4,5-b)pyridine.
Food consumption was estimated visually and was as follows, counting the initiation of the trial period as the first day: […]

rats (Rattus norvegicus) = assay: Rodenticidal effect in rats fed treated diet (Table I); type: in vivo, Spraque-Dawley albino strain, male; conditions: per rat
Text: A quantity of a standard animal feed of the following composition: Ingredients Percent Lbs./Ton ______________________________________ Corn, Yellow, Ground 42.275 845.5 Oats, Ground 10.0 200.0 Wheat Middlings 10.0 200.0 Soybean Oil Meal, Solvent Extracted Dehulled, 50 % 18.0 360.0 Skimmed Milk, Dried 5.0 100.0 Corn, Distillers Dried Solubles 2.5 50.0 Alfalfa Meal, Dehydrated, 17 % 2.5 50.0 Whey, Whole Dried 1.0 20.0 Fish Meal with Solubles 4.0 80.0 Animal Fat, Beef Tallow 2.0 40.0 Dicalcium Phosphate, Feed Grade 0.5 10.0 Calcium Carbonate 1.0 20.0 Salt 0.3 6.0 Trace Mineral Premix AN-03 0.2 4.0 Vitamin Premix CK-1 0.5 10.0 Vitamin E Premix 0.1 2.0 Methionine Hydroxy Analog (HYDAN) 0.125 2.5 Total 100.00 2000.0 ______________________________________
was divided into two portions. To each portion, there was added an amount of 1-methoxy-6-chloro-2-heptafluoro-n-propyl-1H-imidazo(4,5-b)pyridine, so that one portion contained 800 ppm of the compound, and the other portion contained 200 ppm of the compound.
Other modified feeds were prepared as described above but containing, in lieu of the compound identified above, 1-methoxy-6-bromo-2-heptafluoro-n-propyl-1H-imidazo(4,5-b)pyridine, 6-chloro-2-pentafluoroethyl-1H-imidazo(4,5-)pyridine, or 1-methoxy-6-chloro-2-heptafluoroisopropyl-1H-imidazo(4,5-b)pyridine, in the same or other concentrations,
EXAMPLES 2-28 Representative compounds were evaluated for rodenticidal effect in rats (Rattus norvegicus, Spraque-Dawley albino strain, male, each weighing 50-60 grams). Each compound to be evaluated was formulated as described in Example 1. Control rats were maintained on the standard animal feed described in Example 1. Control rats and rats to be treated were randomly assigned. Each group contained 5 or 6 rats. Feeding of the respective diet was ad libitum. Consumption per rat per day was checked, except on weekend days, and the rats were weighed and usually necropsied at death or termination of the experiment (generally, day 10).
In the evaluation of several of the compounds, the rats were observed closely to determine the day of death. Death occurred on the day marked by "X"; where no "X" is marked, the rat was found dead on the morning following the last indicated feeding. For the remaining compounds, no such close observation was made, and the rat was found dead on the morning following the last indicated feeding. Generally, the rats were not observed or feed consumption determined on weekend days.

prothrombin time = assay: Prothrombin time in male rats (Tables III and IV); type: in vivo, rats (Harlan albino strain); conditions: group of 5 rats; for Deaths / Range of Prothrombin Time: five days
Method: Representative compounds were evaluated for prothrombin time in standard laboratory male rats (Harlan albino strain) of weanling age. A standard laboratory animal diet was fed to one group of 5 rats to serve as a control; other groups of 5 rats received modified diets, each diet being the standard laboratory animal diet modified by the incorporation therein of 0.08 percent of the respective compound. Feeding was continued for five days, at which time a blood sample was taken from each rat and analyzed for prothrombin time. The analytical method was that of A. J. Quick, "The Determination of Prothrombin," 190 Am. J. Med. Sci. 501 (1935): and it was performed on the "Electra 600", a machine available from the Medical Laboratory Automation, Inc. The results are reported in Table III.
Additional evaluations of the effect of representative compounds of prothrombin time were conducted. The procedures were the same as those reported in Examples 30-33 except that the concentration of the respective compound was 0.02 percent.

[2] = tested on: whole blood clotting time; assay: Prolongation of whole blood clotting time in female rats (Table II); type: in vivo, Rattus norvegicus, Sprague-Dawley strain; conditions: 0.06 % in diet
Method: 1-Hydroxy-6-chloro-2-pentafluoroethyl-1H-imidazo(4,5-b)-pyridine was evaluated for prolongation of clotting time. The experiment was conducted in female rats (Rattus norvegicus, Sprague-Dawley strain) using a standard laboratory diet. A group of four control rats was fed the unmodified diet and another group of four rats was fed a treated diet, the standard laboratory diet modified by the incorporation therein of 0.06 percent of the 1-hydroxy-6-chloro-2-pentafluoroethyl-1H-imidazo(4,5-b)pyridine.
On the sixth day of feeding, a blood sample was taken from each rat and was analyzed for whole blood clotting time. The analysis was carried out on a BBL Fibrometer Precision Coagulation Timer, produced by BBL Fibrometer, a Division of Becton, Dickinson and Co., Canada, Ltd.; at Mississauga, Ontario. Two analyses were made of each sample.

Question: How did the Bait shyness [1] turn out when `COn1c(C(F)(F)C(F)(F)C(F)(F)F)nc2nc(Cl)c(Cl)cc21` [1-methoxy-5,6-dichloro-2-heptafluoro-n-propyl-1H-imidazo(4,5-b)pyridine] was run?
Answer: no bait shyness

Question: And the “Eradication of rodents from the trial area” value [1]?
Answer: essentially complete eradication of rodents from the trial area

Question: And the “First day rat corpses were found” value [1]?
Answer: 4 days

Question: What about the Necropsy of corpses ([1]; 31 of 40 corpses necropsied) of the same molecule?
Answer: uniformly showed internal hemorrhage, generally of the intestines

Question: And the Corpses found ([1]; total)?
Answer: 40 corpses

Question: Which Necropsy results (rats (Rattus norvegicus); 150 ppm in diet) does the source give for `FC(F)C(F)(F)c1nc2ncc(Cl)cc2[nH]1` [6-chloro-2-(1,1,2,2-tetrafluoroethyl)-1H-imidazo(4,5-b)pyridine] here?
Answer: TH, SIH; also recorded: NH, IH

Question: How did the Weight change (rats (Rattus norvegicus); 200 ppm in diet) turn out when `COn1c(C(F)(F)F)nc2nc(Cl)c(Cl)cc21` [1-methoxy-5,6-dichloro-2-trifluoromethyl-1H-imidazo(4,5-b)pyridine] was run?
Answer: -12 grams

Question: What does the source list for `COn1c(C(F)(F)C(F)(F)F)nc2ncc(Cl)cc21` [1-methoxy-6-chloro-2-pentafluoroethyl-1H-imidazo(4,5-b)pyridine]?
Answer: Deaths (prothrombin time; 0.02 percent in diet): none; Range of Prothrombin Time (prothrombin time; 0.02 percent in diet): 53.1 to 90.5 s; Deaths (prothrombin time; 0.08 percent in diet): 3; Range of Prothrombin Time (prothrombin time; 0.08 percent in diet): 180 to 200 s; Day(s) of deaths (prothrombin time; 0.08 percent in diet): 170000 to 350000 s

Question: Which results are given for `CC(C)(C)C(=O)On1c(C(F)(F)F)nc2ncc(Cl)cc21` [1-pivaloyloxy-6-chloro-2-trifluoromethyl-1H-imidazo(4,5-b)pyridine]?
Answer: Necropsy results (rats (Rattus norvegicus); 750 ppm in diet): TH, IH; also recorded: NH, IH; Necropsy results (rats (Rattus norvegicus); 1500 ppm in diet): NH, IH

Question: `FC(F)(F)c1nc2nc(Cl)c(Cl)cc2[nH]1` [5,6-dichloro-2-trifluoromethyl-1H-imidazo(4,5-b)pyridine] was tested. Which Weight change (rats (Rattus norvegicus); 50 ppm in diet) did it give?
Answer: +13 grams

Question: Which results are given for `CNC(=O)On1c(C(F)(F)F)nc2ncc(Cl)cc21` [1-methylcarbamoyloxy-6-chloro-2-trifluoromethyl-1H-imidazo(4,5-b)pyridine]?
Answer: Deaths (prothrombin time; 0.02 percent in diet): none; Range of Prothrombin Time (prothrombin time; 0.02 percent in diet): 17.6 to 22.1 s; Deaths (prothrombin time; 0.08 percent in diet): none; Range of Prothrombin Time (prothrombin time; 0.08 percent in diet): 39.6 to 98.6 s

Question: For `COn1c(C(F)(F)C(F)(F)C(F)(F)F)nc2ncc(Br)cc21` [1-methoxy-6-bromo-2-heptafluoro-n-propyl-1H-imidazo(4,5-b)pyridine], which Necropsy results (rats (Rattus norvegicus); 200 ppm in diet) is on record?
Answer: LH, IH

Question: How did the Deaths (prothrombin time; 0.02 percent in diet) turn out when `FC(F)(F)c1nc2ncc(Cl)cc2[nH]1` [6-chloro-2-trifluoromethyl-1H-imidazo(4,5-b)pyridine] was run?
Answer: none

Question: What about the Deaths (prothrombin time; 0.08 percent in diet) of the same molecule?
Answer: 5

Question: And the “Day(s) of deaths” value (prothrombin time; 0.08 percent in diet)?
Answer: three

Question: What does the source list for `COn1c(C(F)(F)C(F)(F)C(F)(F)F)nc2ncc(Cl)cc21` [1-methoxy-6-chloro-2-heptafluoro-n-propyl-1H-imidazo(4,5-b)pyridine]?
Answer: Necropsy results (in words) (rats (Rattus norvegicus); 200 ppm in diet): bloody nose; Necropsy results (in words) (rats (Rattus norvegicus); 800 ppm in diet): bloody nose

Question: Which results are given for `COn1c(C(F)(C(F)(F)F)C(F)(F)F)nc2ncc(Cl)cc21` [1-methoxy-6-chloro-2-heptafluoroisopropyl-1H-imidazo(4,5-b)pyridine]?
Answer: Necropsy results (rats (Rattus norvegicus); 200 ppm in diet): TH, SH; Necropsy results (rats (Rattus norvegicus); 300 ppm in diet): AH, TH, SH; also recorded: TH, Test.H

Question: With `COCOn1c(C(F)(F)F)nc2ncc(Cl)cc21` [1-(methoxymethoxy)-6-chloro-2-trifluoromethyl-1H-imidazo(4,5-b)pyridine] as the molecule, how does the Weight change (rats (Rattus norvegicus); 700 ppm in diet) read?
Answer: +13 grams

Question: For `C=CCOn1c(C(F)(F)C(F)F)nc2nc(Cl)c(Cl)cc21` [1-allyloxy-5,6-dichloro-2-(1,1,2,2-tetrafluoroethyl)-1H-imidazo(4,5-b)pyridine], which Weight change (rats (Rattus norvegicus); 100 ppm in diet) is on record?
Answer: 0 grams

Question: `O=C(C=Cc1ccccc1)On1c(C(F)(F)F)nc2ncc(Cl)cc21` [1-cinnamoyloxy-6-chloro-2-trifluoromethyl-1H-imidazo(4,5-b)pyridine] was tested. Which Necropsy results (rats (Rattus norvegicus); 1000 ppm in diet) did it give?
Answer: SH, IH

Question: Which “Death during clotting time study” value ([2]; per animal) does the source give for `On1c(C(F)(F)C(F)(F)F)nc2ncc(Cl)cc21` [1-hydroxy-6-chloro-2-pentafluoroethyl-1H-imidazo(4,5-b)pyridine] here?
Answer: died on day 5; also recorded: died on day 6

Question: And the “Whole Blood Clotting Time” value ([2]; sixth day of feeding, two analyses per sample)?
Answer: > 600 s

Question: Which Weight change (rats (Rattus norvegicus); 200 ppm in diet) does the source give for `CC(C)On1c(C(F)(F)F)nc2nc(Cl)c(Cl)cc21` [1-isopropoxy-5,6-dichloro-2-trifluoromethyl-1H-imidazo(4,5-b)pyridine] here?
Answer: 0 grams

Question: Which Weight change (rats (Rattus norvegicus); 800 ppm in diet) does the source give for `COn1c(C(F)(F)F)nc2nc(Cl)ccc21` [1-methoxy-5-chloro-2-trifluoromethyl-1H-imidazo(4,5-b)pyridine] here?
Answer: -11 grams
